Source: ChEMBL document CHEMBL1201862, “PubChem BioAssay data set” (2004)
Where “and” joins values, the source holds several entries; their conditions need not be identical. Identical values can stand only once. Calls of active or inactive are those of the source.

Assays:
[1] = molecular target: Glyceraldehyde-3-phosphate dehydrogenase (Homo sapiens, UniProt P04406)
[2] = molecular target: Alkaline phosphatase, placental type (Homo sapiens, UniProt P05187); test: human placental alkaline phosphatase inhibition – biochemical, luminescence, confirmation (AID 1512); assay type: functional
[3] = molecular target: T1, Alkaline phosphatase, tissue-nonspecific isozyme (Homo sapiens, UniProt P05186); test: potency against alkaline phosphatase TNAP – biochemical, luminescent, dose response, SAR follow-up (AID 1056)
T1 sequence (P05186 whole entry): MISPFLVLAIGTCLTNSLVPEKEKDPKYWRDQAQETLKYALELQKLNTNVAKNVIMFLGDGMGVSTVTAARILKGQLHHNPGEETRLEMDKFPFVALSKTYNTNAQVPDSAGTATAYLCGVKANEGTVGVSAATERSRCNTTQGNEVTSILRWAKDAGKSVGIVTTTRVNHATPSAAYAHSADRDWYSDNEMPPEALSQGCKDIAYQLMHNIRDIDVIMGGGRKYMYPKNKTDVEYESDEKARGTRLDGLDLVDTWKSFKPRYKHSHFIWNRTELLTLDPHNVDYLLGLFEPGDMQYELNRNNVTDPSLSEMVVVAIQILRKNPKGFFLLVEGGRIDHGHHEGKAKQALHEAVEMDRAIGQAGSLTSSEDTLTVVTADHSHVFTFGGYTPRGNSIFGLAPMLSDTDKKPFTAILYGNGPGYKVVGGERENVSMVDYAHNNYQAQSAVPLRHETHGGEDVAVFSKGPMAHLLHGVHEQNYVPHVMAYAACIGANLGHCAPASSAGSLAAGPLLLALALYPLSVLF

[4] = molecular target: T2, Lysine-specific demethylase 4C (Homo sapiens, UniProt Q9H3R0); test: inhibition of JMJD2C H3K9me3 demethylation – biochemical, DELFIA europium, cherry-picked samples, dose response (AID 488835); assay type: functional
T2 sequence (Q9H3R0 whole entry): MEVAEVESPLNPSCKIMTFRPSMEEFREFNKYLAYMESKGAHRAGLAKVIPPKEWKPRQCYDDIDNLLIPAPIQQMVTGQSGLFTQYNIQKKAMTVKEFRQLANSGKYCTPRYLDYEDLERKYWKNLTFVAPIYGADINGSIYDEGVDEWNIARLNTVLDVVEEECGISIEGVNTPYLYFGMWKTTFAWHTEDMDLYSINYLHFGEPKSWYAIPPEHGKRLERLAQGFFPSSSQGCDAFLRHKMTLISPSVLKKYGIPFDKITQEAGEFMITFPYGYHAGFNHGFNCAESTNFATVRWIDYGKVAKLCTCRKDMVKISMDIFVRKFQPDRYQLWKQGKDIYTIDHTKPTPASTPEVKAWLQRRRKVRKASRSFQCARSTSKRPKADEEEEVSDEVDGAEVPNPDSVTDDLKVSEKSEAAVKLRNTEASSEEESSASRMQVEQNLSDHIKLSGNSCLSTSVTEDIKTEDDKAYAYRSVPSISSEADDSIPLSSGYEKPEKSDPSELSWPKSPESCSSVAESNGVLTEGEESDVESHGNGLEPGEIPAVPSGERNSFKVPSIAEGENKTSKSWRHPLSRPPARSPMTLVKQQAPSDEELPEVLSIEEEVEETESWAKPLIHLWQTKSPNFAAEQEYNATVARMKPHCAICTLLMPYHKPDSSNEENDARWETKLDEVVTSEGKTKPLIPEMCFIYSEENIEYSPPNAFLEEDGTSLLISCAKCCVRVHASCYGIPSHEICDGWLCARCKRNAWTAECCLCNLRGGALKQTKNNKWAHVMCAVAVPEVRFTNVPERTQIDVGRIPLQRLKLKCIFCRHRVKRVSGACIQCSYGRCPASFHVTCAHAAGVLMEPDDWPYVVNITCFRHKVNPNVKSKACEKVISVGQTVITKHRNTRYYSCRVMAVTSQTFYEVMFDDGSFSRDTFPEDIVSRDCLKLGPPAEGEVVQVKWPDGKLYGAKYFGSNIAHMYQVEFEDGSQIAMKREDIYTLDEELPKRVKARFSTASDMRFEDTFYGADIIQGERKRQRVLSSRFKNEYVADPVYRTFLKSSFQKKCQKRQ

[5] = molecular target: Large T antigen (Simian virus 40, UniProt P03070); assay type: functional, Betapolyomavirus macacae;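 further: Confirmatory-stage PubChem screen for compounds that inhibit SV40 T antigen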
[6] = molecular target: Lysine-specific demethylase 4A (Homo sapiens, UniProt O75164); test: inhibition of JMJD2A H3K9me3 demethylation – biochemical, DELFIA europium, cherry-picked samples, selectivity assay for GASC-1 inhibitor project, dose response (AID 488840)
[7] = molecular target: T3, Tyrosine-protein phosphatase non-receptor type 22 (Homo sapiens, UniProt Q9Y2R2); assay type: functional
T3 sequence (Q9Y2R2 whole entry): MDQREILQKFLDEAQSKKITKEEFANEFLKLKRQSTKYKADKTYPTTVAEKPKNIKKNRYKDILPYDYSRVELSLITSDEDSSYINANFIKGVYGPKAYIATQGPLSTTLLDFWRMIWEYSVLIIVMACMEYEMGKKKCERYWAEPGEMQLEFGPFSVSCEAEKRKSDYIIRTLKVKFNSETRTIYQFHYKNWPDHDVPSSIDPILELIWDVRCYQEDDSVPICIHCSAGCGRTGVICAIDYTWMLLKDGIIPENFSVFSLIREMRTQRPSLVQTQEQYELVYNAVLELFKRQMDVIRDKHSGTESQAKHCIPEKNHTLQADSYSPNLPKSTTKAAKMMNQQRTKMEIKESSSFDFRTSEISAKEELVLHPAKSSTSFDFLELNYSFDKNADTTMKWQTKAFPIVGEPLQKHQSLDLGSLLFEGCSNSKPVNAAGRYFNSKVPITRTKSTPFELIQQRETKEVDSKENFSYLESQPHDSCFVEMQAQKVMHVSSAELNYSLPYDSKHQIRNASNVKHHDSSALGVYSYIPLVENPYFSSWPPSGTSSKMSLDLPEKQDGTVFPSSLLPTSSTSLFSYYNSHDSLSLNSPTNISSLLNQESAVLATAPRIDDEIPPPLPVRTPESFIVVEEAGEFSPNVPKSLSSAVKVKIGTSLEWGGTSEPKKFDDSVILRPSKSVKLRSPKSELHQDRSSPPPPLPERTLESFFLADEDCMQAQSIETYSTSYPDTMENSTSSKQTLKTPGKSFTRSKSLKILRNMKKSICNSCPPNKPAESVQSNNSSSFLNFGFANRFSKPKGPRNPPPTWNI

[8] = molecular target: T4, Tyrosine-protein phosphatase non-receptor type 7 (Homo sapiens, UniProt P35236); assay type: functional
T4 sequence (P35236 whole entry): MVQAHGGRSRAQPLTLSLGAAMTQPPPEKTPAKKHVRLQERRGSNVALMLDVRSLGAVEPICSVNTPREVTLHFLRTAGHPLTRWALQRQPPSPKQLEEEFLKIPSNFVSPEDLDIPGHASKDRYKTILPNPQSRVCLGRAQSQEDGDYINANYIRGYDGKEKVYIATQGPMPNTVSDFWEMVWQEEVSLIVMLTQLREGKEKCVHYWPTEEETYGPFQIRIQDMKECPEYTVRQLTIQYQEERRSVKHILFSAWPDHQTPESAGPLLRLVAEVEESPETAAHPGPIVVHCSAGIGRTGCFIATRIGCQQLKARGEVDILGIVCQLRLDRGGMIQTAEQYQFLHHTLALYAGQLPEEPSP

[9] = molecular target: T5, Dual specificity protein phosphatase 3 (Homo sapiens, UniProt P51452); test: VHR1 phosphatase inhibitors, primary screen, biochemical, absorbance, uHTS (AID 1654)
[10] = molecular target: T6, Dual specificity protein phosphatase 6 (Rattus norvegicus, UniProt Q64346); test: inhibition of rat DUSP6 enzyme activity – biochemical, in vitro, primary screen (AID 425)
T6 sequence (Q64346 whole entry): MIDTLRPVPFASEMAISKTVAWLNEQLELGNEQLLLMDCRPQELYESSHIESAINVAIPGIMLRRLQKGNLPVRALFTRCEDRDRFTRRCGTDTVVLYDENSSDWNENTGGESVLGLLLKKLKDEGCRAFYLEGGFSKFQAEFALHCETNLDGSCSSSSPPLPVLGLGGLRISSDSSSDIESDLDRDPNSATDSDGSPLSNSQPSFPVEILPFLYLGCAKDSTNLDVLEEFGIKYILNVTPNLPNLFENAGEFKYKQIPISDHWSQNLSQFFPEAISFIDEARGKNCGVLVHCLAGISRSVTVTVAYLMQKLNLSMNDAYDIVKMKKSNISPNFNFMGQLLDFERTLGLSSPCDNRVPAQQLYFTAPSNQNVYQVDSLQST

[11] = molecular target: T7, Aminopeptidase N (Plasmodium falciparum FcB1/Columbia, UniProt O96935); test: malaria alanyl aminopeptidase activity blockers – biochemical, fluorogenic H-Leu-NHMec substrate, 1536-well (AID 1445); parameters: species or system Plasmodium falciparum 3D7, 3D7
T7 sequence (O96935 whole entry): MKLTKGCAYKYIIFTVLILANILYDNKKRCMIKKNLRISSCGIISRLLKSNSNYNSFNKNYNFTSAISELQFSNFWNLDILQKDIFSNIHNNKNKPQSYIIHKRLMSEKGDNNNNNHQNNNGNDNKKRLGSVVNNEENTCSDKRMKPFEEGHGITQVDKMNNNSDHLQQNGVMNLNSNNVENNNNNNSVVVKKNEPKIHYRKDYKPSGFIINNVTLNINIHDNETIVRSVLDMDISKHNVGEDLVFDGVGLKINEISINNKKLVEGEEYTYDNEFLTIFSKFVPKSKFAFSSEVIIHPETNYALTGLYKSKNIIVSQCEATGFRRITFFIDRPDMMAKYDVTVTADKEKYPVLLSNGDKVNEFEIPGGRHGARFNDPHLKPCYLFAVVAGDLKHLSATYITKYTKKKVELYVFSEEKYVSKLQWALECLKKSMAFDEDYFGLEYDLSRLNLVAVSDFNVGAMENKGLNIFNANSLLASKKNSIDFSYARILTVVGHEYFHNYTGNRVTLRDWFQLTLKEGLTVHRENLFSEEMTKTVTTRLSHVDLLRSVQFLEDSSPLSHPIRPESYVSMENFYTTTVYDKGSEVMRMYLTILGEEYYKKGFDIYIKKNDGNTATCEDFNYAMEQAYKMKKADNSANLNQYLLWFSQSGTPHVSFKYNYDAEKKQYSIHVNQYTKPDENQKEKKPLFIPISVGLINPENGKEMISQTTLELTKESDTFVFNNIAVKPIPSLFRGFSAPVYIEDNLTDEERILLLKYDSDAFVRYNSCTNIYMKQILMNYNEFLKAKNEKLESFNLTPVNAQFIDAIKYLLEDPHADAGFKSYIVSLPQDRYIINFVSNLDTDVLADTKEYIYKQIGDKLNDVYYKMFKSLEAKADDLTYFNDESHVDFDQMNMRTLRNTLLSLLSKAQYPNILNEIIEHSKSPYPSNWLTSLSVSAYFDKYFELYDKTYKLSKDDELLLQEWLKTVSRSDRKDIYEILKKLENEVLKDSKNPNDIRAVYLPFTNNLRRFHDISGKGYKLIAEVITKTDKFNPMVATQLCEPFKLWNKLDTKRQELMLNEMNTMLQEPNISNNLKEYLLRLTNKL

[12] = molecular target: T5, Dual specificity protein phosphatase 3; test: VHR1 phosphatase inhibitors, biochemical (AID 1878)
[13] = molecular target: T3, Tyrosine-protein phosphatase non-receptor type 22; test: PTPN22 lymphoid phosphatase activity blockers – biochemical, fluorescence intensity, uHTS (AID 1779)
[14] = molecular target: T3, Tyrosine-protein phosphatase non-receptor type 22; test: LYP1 Fluorescent Assay using OMFP substrate for In Vitro dose response studies. [Related pubchem assays (depositor defined):AID1779, AID1784, AID435024]
[15] = molecular target: T3, Tyrosine-protein phosphatase non-receptor type 22; assay type: functional; remark: listed apart in the source
[16] = molecular target: T4, Tyrosine-protein phosphatase non-receptor type 7; test: HTS HePTP Fluorescent Assay using OMFP substrate for In Vitro dose response studies. [Related pubchem assays (depositor defined):AID1059, AID1077, AID1784, AID2068, AID2085, AID435032, AID521]; assay type: functional
[17] = molecular target: T8, Carboxy-terminal domain RNA polymerase II polypeptide A small phosphatase 1 (Homo sapiens, UniProt Q9GZU7); test: CTDSP1 inhibitors, concentration-response, biochemical, absorbance readout, ultra-high-throughput screen actives (AID 540297); assay type: functional
T8 sequence (Q9GZU7 whole entry): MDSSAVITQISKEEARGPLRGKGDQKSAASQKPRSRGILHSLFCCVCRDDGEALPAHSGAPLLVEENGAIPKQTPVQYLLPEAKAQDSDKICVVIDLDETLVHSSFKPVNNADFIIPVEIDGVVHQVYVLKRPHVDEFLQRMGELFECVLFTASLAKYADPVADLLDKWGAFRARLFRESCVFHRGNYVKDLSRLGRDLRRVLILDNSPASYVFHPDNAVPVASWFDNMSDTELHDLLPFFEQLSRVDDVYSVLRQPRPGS

[18] = molecular target: Albumin (Bos taurus, UniProt P02769); test: Counterscreen for inhibitors of T-cell receptor (TCR)-CD3 interaction: Fluorescence-based biochemical high throughput dose response assay to identify inhibitors of T-cell receptor (TCR)-CD3 interaction using a TAMRA-labeled BSA probe.; assay type: functional
Albumin, sequence (P02769 whole entry): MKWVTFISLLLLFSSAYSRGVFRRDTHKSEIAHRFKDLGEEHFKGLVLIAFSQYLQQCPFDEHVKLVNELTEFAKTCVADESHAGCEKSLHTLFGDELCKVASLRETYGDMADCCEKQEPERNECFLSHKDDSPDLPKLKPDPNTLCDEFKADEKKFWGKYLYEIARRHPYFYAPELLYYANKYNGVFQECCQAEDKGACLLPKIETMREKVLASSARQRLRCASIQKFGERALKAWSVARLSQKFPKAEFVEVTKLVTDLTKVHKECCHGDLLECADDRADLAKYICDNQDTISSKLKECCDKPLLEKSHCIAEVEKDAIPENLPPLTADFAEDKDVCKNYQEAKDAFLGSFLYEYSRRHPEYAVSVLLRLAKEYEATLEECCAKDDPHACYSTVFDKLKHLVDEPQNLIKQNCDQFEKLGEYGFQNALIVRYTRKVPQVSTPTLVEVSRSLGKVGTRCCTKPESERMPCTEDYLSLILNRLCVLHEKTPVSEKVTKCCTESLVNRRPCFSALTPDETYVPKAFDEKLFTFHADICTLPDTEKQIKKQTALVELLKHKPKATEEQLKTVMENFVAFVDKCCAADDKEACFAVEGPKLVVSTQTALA

Alkaline phosphatase, placental type, sequence (P05187 whole entry): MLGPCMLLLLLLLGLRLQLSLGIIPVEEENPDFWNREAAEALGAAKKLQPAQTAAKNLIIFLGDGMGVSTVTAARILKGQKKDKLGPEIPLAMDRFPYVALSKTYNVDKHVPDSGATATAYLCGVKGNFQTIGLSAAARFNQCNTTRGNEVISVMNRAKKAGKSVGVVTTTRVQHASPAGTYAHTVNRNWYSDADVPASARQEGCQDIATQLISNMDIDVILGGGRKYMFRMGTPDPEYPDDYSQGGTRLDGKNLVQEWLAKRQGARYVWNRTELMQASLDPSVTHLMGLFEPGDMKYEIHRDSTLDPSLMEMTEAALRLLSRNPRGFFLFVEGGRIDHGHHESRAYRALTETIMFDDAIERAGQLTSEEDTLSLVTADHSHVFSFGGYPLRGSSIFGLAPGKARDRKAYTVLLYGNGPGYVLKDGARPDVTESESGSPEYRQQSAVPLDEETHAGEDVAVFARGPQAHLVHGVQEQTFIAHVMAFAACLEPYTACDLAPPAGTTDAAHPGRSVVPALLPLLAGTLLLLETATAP
T5 sequence (P51452 whole entry): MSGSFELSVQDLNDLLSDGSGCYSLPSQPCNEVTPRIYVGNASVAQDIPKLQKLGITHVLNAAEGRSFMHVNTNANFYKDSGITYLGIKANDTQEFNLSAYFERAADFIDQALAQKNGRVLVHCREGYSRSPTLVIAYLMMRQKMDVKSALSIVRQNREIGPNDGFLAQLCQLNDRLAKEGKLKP
Glyceraldehyde-3-phosphate dehydrogenase, sequence (P04406 whole entry): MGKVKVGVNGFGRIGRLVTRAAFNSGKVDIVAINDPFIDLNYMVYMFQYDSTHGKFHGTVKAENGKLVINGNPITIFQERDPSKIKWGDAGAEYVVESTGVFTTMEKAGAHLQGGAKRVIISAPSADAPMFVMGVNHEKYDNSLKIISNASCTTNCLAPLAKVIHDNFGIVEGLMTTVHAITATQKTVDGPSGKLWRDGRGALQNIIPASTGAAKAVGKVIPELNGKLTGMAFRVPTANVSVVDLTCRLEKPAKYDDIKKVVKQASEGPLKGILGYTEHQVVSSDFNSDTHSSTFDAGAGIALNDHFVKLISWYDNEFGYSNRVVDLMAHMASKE
Lysine-specific demethylase 4A, sequence (O75164 whole entry): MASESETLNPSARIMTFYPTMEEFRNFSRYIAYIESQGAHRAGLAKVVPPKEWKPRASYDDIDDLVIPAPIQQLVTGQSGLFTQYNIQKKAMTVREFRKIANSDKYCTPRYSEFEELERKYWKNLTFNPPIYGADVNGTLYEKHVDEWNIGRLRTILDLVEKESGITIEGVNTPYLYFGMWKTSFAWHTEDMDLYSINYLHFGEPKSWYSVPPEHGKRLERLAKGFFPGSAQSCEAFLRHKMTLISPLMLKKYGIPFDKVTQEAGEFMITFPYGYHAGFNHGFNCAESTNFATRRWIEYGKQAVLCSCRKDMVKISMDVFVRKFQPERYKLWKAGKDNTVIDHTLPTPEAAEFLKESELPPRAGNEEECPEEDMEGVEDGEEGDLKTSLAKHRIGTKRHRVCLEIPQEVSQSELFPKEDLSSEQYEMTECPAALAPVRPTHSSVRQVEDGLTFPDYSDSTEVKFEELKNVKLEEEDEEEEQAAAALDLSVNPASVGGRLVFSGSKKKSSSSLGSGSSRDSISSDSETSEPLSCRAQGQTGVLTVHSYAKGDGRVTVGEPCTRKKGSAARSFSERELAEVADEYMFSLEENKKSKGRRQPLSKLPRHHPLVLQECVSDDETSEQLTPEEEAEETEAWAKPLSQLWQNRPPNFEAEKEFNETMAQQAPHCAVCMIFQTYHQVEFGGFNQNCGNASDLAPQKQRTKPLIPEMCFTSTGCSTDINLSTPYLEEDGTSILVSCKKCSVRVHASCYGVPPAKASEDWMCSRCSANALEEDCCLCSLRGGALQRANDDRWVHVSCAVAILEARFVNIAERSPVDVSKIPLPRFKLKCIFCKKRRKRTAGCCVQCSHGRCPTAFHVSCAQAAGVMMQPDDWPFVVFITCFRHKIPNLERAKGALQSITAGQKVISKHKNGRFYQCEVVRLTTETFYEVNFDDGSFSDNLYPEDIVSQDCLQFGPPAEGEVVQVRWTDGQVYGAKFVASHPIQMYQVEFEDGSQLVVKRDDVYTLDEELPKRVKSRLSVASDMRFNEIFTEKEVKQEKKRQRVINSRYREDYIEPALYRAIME
Large T antigen, sequence (P03070 whole entry): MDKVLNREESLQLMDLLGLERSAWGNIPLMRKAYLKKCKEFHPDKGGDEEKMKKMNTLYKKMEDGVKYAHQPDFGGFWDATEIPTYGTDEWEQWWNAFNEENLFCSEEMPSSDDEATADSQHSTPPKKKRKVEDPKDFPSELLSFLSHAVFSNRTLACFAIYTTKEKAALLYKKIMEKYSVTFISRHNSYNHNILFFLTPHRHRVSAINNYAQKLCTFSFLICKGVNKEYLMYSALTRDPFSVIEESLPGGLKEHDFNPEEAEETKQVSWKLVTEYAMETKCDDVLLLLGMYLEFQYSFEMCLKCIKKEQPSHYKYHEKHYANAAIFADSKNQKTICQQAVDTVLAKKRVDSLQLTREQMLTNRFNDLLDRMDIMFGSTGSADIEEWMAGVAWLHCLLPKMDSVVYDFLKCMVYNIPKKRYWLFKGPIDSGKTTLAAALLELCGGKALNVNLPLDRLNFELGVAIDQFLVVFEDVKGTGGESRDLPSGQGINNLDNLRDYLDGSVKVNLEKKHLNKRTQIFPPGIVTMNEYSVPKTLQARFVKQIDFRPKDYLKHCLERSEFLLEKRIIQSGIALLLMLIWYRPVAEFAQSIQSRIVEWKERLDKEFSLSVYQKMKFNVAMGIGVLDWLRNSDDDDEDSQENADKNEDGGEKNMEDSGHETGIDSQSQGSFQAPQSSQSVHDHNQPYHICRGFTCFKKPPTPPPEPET

O=C1C2CC=CCC2C(=O)N1c1nnc(Cc2ccccc2)[nH]1 (stereo not drawn)
IC50 [1]: > 100 µM (not active) | IC50 [2]: 2.04 µM (active) and 3.25 µM (active) | IC50 [3]: 169 nM (active) and 126 nM (active) and 172 nM (active)

COc1ccc(NN=Nc2nc3c(=O)n(C)c(=O)n(C)c3[nH]2)cc1
AC50 [4]: 8.08 µM (active) | IC50 [5]: 36.8 µM (active) | AC50 [6]: > 60 µM (inactive)

COc1ccc(/N=C2\S/C(=C\c3ccc(OCC(=O)O)cc3)C(=O)N2CCc2c[nH]c3ccccc23)cc1
IC50 [7]: < 1.24 µM (active) | IC50 [8]: 2.52 µM (active) | IC50 [9]: 3.49 µM (active) | IC50 [10]: > 158 µM (not active) | IC50 [11]: 75.7 µM (active) | IC50 [12]: 2.43 µM (active) | IC50 [13]: > 99 µM (inactive) | IC50 [14]: > 99 µM (inactive) | IC50 [15]: < 1.24 µM (active) | IC50 [16]: > 99 µM (inactive)

Oc1ccccc1-c1n[nH]c(-c2ccccc2O)n1
IC50 [1]: > 100 µM (not active) | IC50 [2]: > 100 µM (inactive) | IC50 [3]: > 100 µM (inactive)

Cc1ccc(C(=O)NNC(=O)c2ccc3ccccc3c2O)cc1
AC50 [4]: 8.8 µM (active) | IC50 [17]: 7.74 µM (active) | AC50 [6]: 6.59 µM (active) | IC50 [18]: > 94 µM (inactive)
